Measured values taken from US20250249001A1, “METHODS OF TREATING SUBSTANCE USE DISORDER WITH 4-(3-CYANOPHENYL)-6-PYRIDINYLPYRIMIDINE MGLU5 NEGATIVE ALLOSTERIC MODULATORS” (Tempero Bio, Inc., priority 2022, published 2025).

Key:
[1] = system: Wistar rats, open-field locomotor activity; assay: Open-field locomotor test for nonspecific behavioral effects; assay type: in vivo; details: 3 mg/kg i.p., 1-hr pretreatment
Description: Locomotor activity: testing for nonspecific behavioral effects. After completion of the Compound 1 dose response curve, potential nonspecific effects of Compound 1 (3 mg/kg) were assessed using the open-field locomotor test. This test evaluates potential effects on motor activity and anxiety-like behavior. Rats were administered Compound 1 (0 or 3 mg/kg, i.p.) in a randomized counterbalanced order. After a 1-hr pretreatment period (matching the pretreatment period used in the drinking study), rats were placed in the open-field apparatus and locomotor activity was computer-monitored for 1-hr. To assess anxiety-like behavior, activity in the center zone of the open field was analyzed.
Open-field locomotor test for nonspecific behavioral effects. Pharmacological manipulations have the potential to alter rodent behavior by producing nonspecific effects on motor ability, learning and memory, or emotional processing. The open field test is a widely used method for assessing all these potential nonspecific effects in a single test. In this method, rodents are injected with a test compound and placed in an open-field apparatus that records ambulatory behavior in real time via computer analysis of photobeam breaks (FIG. 3A). […] Similarly, Compound 1 (3 mg/kg) had no effect on summary measures of total ambulatory distance (FIG. 3C) or total ambulatory time (FIG. 3D) as compared to vehicle control.

[2] = system: operant alcohol self-administration in Wistar rats; assay: Operant alcohol self-administration, repeated oral pellet treatment (A-B-A); assay type: in vivo; details: 10 mg/kg oral in palatable food pellet, 2-hr before daily sessions, 7 days (Days 6-12)
Description: Repeated treatment with Compound 1. To evaluate effects of repeated treatment with Compound 1 on operant alcohol self-administration, a separate group of rats (n=12) was trained to self-administer alcohol as described above. After operant behavior reached a stable baseline, habituation to i.p. injections were conducted as described above. […] Another group of rats (n=12) was then trained to self-administer alcohol and a new injection protocol (e.g., 2-hr pretreatment time) was initiated. […] In a final attempt to evaluate repeated treatment, we re-established baseline behavior in the same rats and administered Compound 1 (0 and 10 mg/kg) orally in a palatable food pellet as previously reported. Doses were administered according to an A-B-A (vehicle-Compound 1-vehicle) experimental design with 5 consecutive days of exposure to each vehicle treatment and 7 days of exposure to Compound 1. There was no observable stress response using this method of exposure. Operant self-administration (number of alcohol reinforced lever presses) was recorded during daily 15-min test sessions (n=12 rats).
In a final attempt to salvage the study, injections were halted in the second group of rats and EtOH self-administration behavior was allowed to stabilize over a 1-week period. […]

[3] = system: cue-induced reinstatement of alcohol-seeking behavior in Wistar rats; assay: Cue-induced reinstatement of alcohol-seeking behavior; assay type: in vivo; details: 10 mg/kg IP
Excerpt: Operant alcohol self-administration training. Male Wistar rats (n=12) were trained to self-administer alcohol in two-lever operant conditioning chambers as described above. A total of n=11 rats completed the experiment. […] Fluid cups were inspected at the end of each session to verify intake. Extinction.
Cue-induced reinstatement test. On the next day, rats were given a reinstatement test in which lever press responses were followed by presentation of the cue light and auditory pump sound (as during training) but in the absence of ethanol reinforcement to examine cue-induced alcohol-seeking behavior (see Cue-induced reinstatement method FIG. 9A, right panel). One hour prior to the reinstatement session rats were divided into 2 equal subgroups groups and administered Compound 1 (0 or 10 mg/kg, IP) to determine if Compound 1 alters cue-induced reinstatement of alcohol-seeking behavior as compared to vehicle control. Groups were matched on body weight, baseline response totals, and extinction performance prior to drug testing. After this test, rats were returned to baseline conditions. […]

[4] = Phase 1 multiple ascending dose study, exposure; assay type: in vivo, healthy subjects; details: 100 mg/day (50 mg twice per day) oral; study suspended at day 9 after dosage of 6 patients
Excerpt: Example 5 presents the protocol for a suspended, multiple ascending dose (MAD) study to evaluate the safety, tolerability, and pharmacokinetics (PK) of Compound 1 in healthy subjects. In the following paragraphs, Example 5 is described in the future tense for sake of brevity; the study was suspended at day 9 after dosage of 6 patients. […] Example 6 presents the protocol for a planned, amended Phase 1 MAD study.
Study Objectives and Endpoints—See Table 12 for Study Objectives and Endpoints. There will be up to 4 dose cohorts, and within each cohort subjects will be randomly assigned to receive either active drug or placebo. Study subjects will be administered active drug or placebo twice daily for 14 days (note: only the AM dose is administered on Day 14).
Each subject will be randomly assigned to 1 of the following cohorts: Cohort 1: Group 1 (6 subjects): 50 mg of Compound 1 twice daily (bid); Group 2 (2 subjects): placebo (matching Compound 1) bid. Cohort 2: Group 3 (6 subjects): 100 mg of Compound 1 bid; Group 4 (2 subjects): placebo (matching Compound 1) bid. Cohort 3: Group 5 (6 subjects): 150 mg of Compound 1 bid; Group 6 (2 subjects): placebo (matching Compound 1) bid.

mGluR5 = details: cited from earlier work

With `N#Cc1cc(Cl)cc(-c2cc(-c3ccc(F)cn3)ncn2)c1` [Compound 1, 3-chloro-5-[6-(5-fluoropyridin-2-yl)pyrimidin-4-yl]benzonitrile] the “motor activity in the center zone of the open field (anxiety-like behavior)” value [1] was “normal avoidance of the center zone”, the total ambulatory distance [1] was “no effect” and the total ambulatory time [1] was “no effect”. The “initial exploration or habituation to the novel open-field environment” value ([1]; 1-hr test) was “no effect”, the “EtOH reinforced lever press responses, repeated treatment” value [2] was “failed to alter operant alcohol self-administration” and the “cue-induced reinstatement, total responses on the previously active lever” value ([3]; one hour prior to reinstatement session) was “blocked”. The “cue-induced reinstatement, responding relative to extinction performance” value ([3]; vehicle ~400% of extinction level) was “fully blocked”, the “exposure in healthy subjects” value [4] was “greater than expected exposure” and the “affinity for mGluR5” value (mGluR5; following systemic administration in rats, mice, and primates) was “high affinity”. The brain penetration (mGluR5; systemic administration) was “brain penetrant”.
